{"source": "patent US20250367112A1", "about": "“DRUG DELIVERY COMPOSITION FOR PROMOTING TISSUE REGENERATION AND KIT FOR DRUG DELIVERY COMPRISING SAME” (T&R BIOFAB CO., LTD., priority 2023, published 2025)", "origin": "cited, not measured here", "note": "Counter-ions that a name gives are not always drawn. Like-named read-outs stand apart in the source and are kept apart here.", "data": [{"compound": "CCCN1CCCC[C@H]1C(=O)Nc1c(C)cccc1C", "note": "[Ropivacaine HCl]", "values": [{"measurement": "in vivo half-life", "setting": "epidural injection", "result": "4.2 ± 1", "unit": "h"}, {"measurement": "in vivo half-life", "setting": "intravenous injection", "result": "1.8 ± 0.7", "unit": "h"}]}]}
